Tests used:
[1] = system: MDA-MB-231; test: Antiproliferative activity against human MDA-MB-231 cells assessed as cell growth inhibition incubated for 4 hrs by MTT assay; type: functional, cell-based; conditions: MDA-MB-231, 4 h
[2] = system: HT-29; test: Antiproliferative activity against human HT-29 cells assessed as cell growth inhibition incubated for 4 hrs by MTT assay; type: functional, cell-based; conditions: HT-29, 4 h
[3] = system: A549; test: Antiproliferative activity against human A549 cells assessed as cell growth inhibition incubated for 4 hrs by MTT assay; type: functional, cell-based; conditions: A549, 4 h
[4] = Selectivity index, ratio of IC50 for antiproliferative activity against human A549 cells to IC50 for antiproliferative activity against human MDA-MB-231 cells; type: functional
[5] = Selectivity index, ratio of IC50 for antiproliferative activity against human HT-29 cells to IC50 for antiproliferative activity against human MDA-MB-231 cells; type: functional

| SMILES | IC50 [1] | IC50 [2] | IC50 [3] | Ratio IC50 [4] | Ratio IC50 [5] |
| --- | --- | --- | --- | --- | --- |
| O=C(/C=C/c1ccccc1)c1ccccc1 [CHALCONE] | 42.8 µM | 45.9 µM | 69.2 µM |  |  |
| COc1ccc(/C=C/C(=O)NCCNC(=O)[C@H]2CC[C@H]3[C@@H]4CCC5=CC(=O)CC[C@]5(C)[C@H]4CC[C@]23C)cc1 | 22.2 µM | 35 µM | > 40 µM | >1.8 | 1.6 |
| O=c1[nH]cc(F)c(=O)[nH]1 [FLUOROURACIL] | 9.89 µM | 12.7 µM | 14.5 µM | 1.5 | 1.3 |
| C[C@]12CC[C@H]3[C@@H](CCC4=CC(=O)CC[C@@]43C)[C@@H]1CC[C@@H]2C(=O)NCCNC(=O)/C=C/c1ccccc1 | 10.3 µM | 9.49 µM | 27.3 µM | 2.7 | 1.1 |
| C[C@]12CC[C@H]3[C@@H](CCC4=CC(=O)C=C[C@@]43C)[C@@H]1CC[C@@H]2C(=O)NCCNC(=O)/C=C/c1ccccc1 | 5.82 µM | 12.7 µM | 26.9 µM | 4.6 | 2.2 |
| C[C@]12CC[C@H]3[C@@H](CCC4=CC(=O)C=C[C@@]43C)[C@@H]1CC[C@@H]2C(=O)NCCNC(=O)/C=C/c1ccc([N+](=O)[O-])cc1 | 22.6 µM | > 40 µM | > 40 µM | >1.8 | >1.8 |
| C[C@]12CC[C@H]3[C@@H](CCC4=CC(=O)CC[C@@]43C)[C@@H]1CC[C@@H]2C(=O)NCCNC(=O)/C=C/c1ccc([N+](=O)[O-])cc1 | 12 µM | 27.8 µM | > 40 µM | >3.3 | 2.3 |
| COc1ccc(/C=C/C(=O)NCCNC(=O)[C@H]2CC[C@H]3[C@@H]4CCC5=CC(=O)C=C[C@]5(C)[C@H]4CC[C@]23C)cc1OC | 5.75 µM | > 40 µM | > 40 µM | >7 | >7 |
| COc1ccc(/C=C/C(=O)NCCNC(=O)[C@H]2CC[C@H]3[C@@H]4CCC5=CC(=O)C=C[C@]5(C)[C@H]4CC[C@]23C)cc1 | 11.5 µM | > 40 µM | 29.6 µM | 2.6 | >3.5 |
| C[C@]12CC[C@H]3[C@@H](CCC4=CC(=O)CC[C@@]43C)[C@@H]1CC[C@@H]2C(=O)NCCNC(=O)/C=C/c1cccc([N+](=O)[O-])c1 | 11.2 µM | 25.4 µM | 17.7 µM | 1.6 | 2.3 |
| CC(C)(C)OC(=O)NCCNC(=O)[C@H]1CC[C@H]2[C@@H]3CCC4=CC(=O)CC[C@]4(C)[C@H]3CC[C@]12C | 24.8 µM | > 40 µM | > 40 µM |  |  |
| C[C@]12CC[C@H]3[C@@H](CCC4=CC(=O)CC[C@@]43C)[C@@H]1CC[C@@H]2C(=O)NCCNC(=O)/C=C/c1ccc(Cl)cc1 | 8.19 µM | 15 µM | 35.7 µM | 4.3 | 1.8 |
| C[C@]12CC[C@H]3[C@@H](CCC4=CC(=O)C=C[C@@]43C)[C@@H]1CC[C@@H]2C(=O)NCCNC(=O)/C=C/c1ccc(Cl)cc1 | > 40 µM | > 40 µM | 38.7 µM |  |  |
| COc1cc(/C=C/C(=O)NCCNC(=O)[C@H]2CC[C@H]3[C@@H]4CCC5=CC(=O)C=C[C@]5(C)[C@H]4CC[C@]23C)cc(OC)c1OC | > 40 µM | > 40 µM | 35.9 µM |  |  |
| COc1cc(/C=C/C(=O)NCCNC(=O)[C@H]2CC[C@H]3[C@@H]4CCC5=CC(=O)CC[C@]5(C)[C@H]4CC[C@]23C)cc(OC)c1OC | > 40 µM | > 40 µM | > 40 µM |  |  |
| CC(C)(C)OC(=O)NCCNC(=O)[C@H]1CC[C@H]2[C@@H]3CCC4=CC(=O)C=C[C@]4(C)[C@H]3CC[C@]12C | > 40 µM | > 40 µM | > 40 µM |  |  |

— ChEMBL document CHEMBL5241053, “Discovery of novel steroidal-chalcone hybrids with potent and selective activity against triple-negative breast cancer” (Bioorg Med Chem, 2020)
